The text below walks through data of PMC8400257, “2-Phenoxy-3-Trichloromethylquinoxalines Are Antiplasmodial Derivatives with Activity against the Apicoplast of Plasmodium falciparum” (Pharmaceuticals, 2021).

Structures are written as SMILES. Entries after “also recorded” stand apart in the source; their conditions may differ.

The subject of one data set is HepG2 cell line. Kind of data set: In vitro alkaline comet assay. In kind it is cell-based, human. Here is the method: The human hepatocarcinoma cell line HepG2 was obtained from the American Type Culture Collection (ATCC, ref. HB-8065). Cells were cultured in Eagle’s minimum essential medium (EMEM, ref. ATCC®® 30-2003TM) and supplemented with 10% heat-inactivated foetal bovine serum, 100 U/mL penicillin, and 0.1 mg/mL streptomycin (all from Gibco). Cells were maintained at 37 °C in a humidified atmosphere with 5% CO2 and used in passage number 11 to 15. Two concentrations of the compound 3i (3.2 and 16 µM) were tested at 2 different times of incubation (2 and 72 h). Briefly, HepG2 cells were seeded at 1.13 × 10^5 cells/mL in 6-well plates (3 mL of cell suspension per well) and incubated at 37 °C in a humidified atmosphere with 5% CO2. After 24 and 94 h of incubation, cells were treated with different concentrations of the compound or the vehicle (0.5% dimethylsulfoxide, DMSO) for 72 and 2 h, respectively. Additionally, in the 2 h treatment plate, cells in an additional well were treated with 1 mM MMS as positive control for the comet assay. After treatment, medium was removed from the wells and cells were washed with phosphate buffered saline (PBS). Finally, cells were trypsinized and trypsin was neutralized with fresh medium. From this point, cells were kept ice-cold to avoid DNA repair.
The standard alkaline comet assay was employed for the detection of DNA strand breaks (SBs) and alkali-labile sites (ALS) in cells treated with molecule 3i. Trypsinized HepG2 cells were centrifuged at 125 × g for 5 min at 4 °C and resuspended in cold PBS at 1 x 10^6 cells/mL. For the preparation of the agarose gels, 30 µL of cell suspension were mixed with 140 µL of 1% low melting point agarose in PBS at 37 °C and 2 aliquots of 70 µL of cell/agarose mixture were placed on agarose-precoated microscope slides. Each droplet was covered with a 20 × 20 mm coverslip and, after 2–3 min on a cold metal plate, the coverslips were removed. Then, slides were immersed in lysis solution (2.5 M NaCl, 0.1 M Na2EDTA, 0.01 M Tris base, pH 10, and 1% Triton X-100) at 4 °C for 1 h. After lysis, slides were transferred to the electrophoresis tank and incubated for 40 min at 4 °C in the electrophoresis solution (0.3 M NaOH, 1 mM Na2EDTA, pH > 13) to allow DNA unwinding. After that, electrophoresis was carried out at 1 V/cm for 20 min (4 °C). Then, gels were neutralized and washed by immersing the slides in PBS for 10 min and distilled water for another 10 min (both at 4 °C). Gels were then air-dried at room temperature. Comets were stained by adding 30 µL of […] of 4,6- diamidino-2-phenylindole (DAPI) on top of each gel and placing 22 × 22 mm coverslips on top. Slides were incubated with DAPI at room temperature for 30 min before the analysis. The semi-automated image analysis system Comet Assay IV (Instem, Stone, UK) was used to evaluate 50 comets per gel (i.e., 100 comets/condition). The percentage of DNA in tail was the descriptor used for each comet.
The median percentage of DNA in tail for 50 comets was calculated for each of the duplicate gels in each experiment, and the mean of the two medians were then calculated. The mean percentage of DNA in tail of 3 independent experiments and the standard deviation (SD) were calculated.

In data set [1] the test system is S. typhimurium strains (TA97a, TA98, TA100, TA102). In words: Ames test. In kind it is cell-based, Salmonella typhimurium. The settings on record: 48 h; 5 mM and 25 mM, w/o and w/ S9 mix; four S. typhimurium strains. Here is the method: Nevertheless, the evaluation of the mutagenicity of compound (3i) was carried out using the Ames test on four S. typhimurium strains at 5 mM and 25 mM (four doses per concentrations: 2, 3, 4, 5 µL/plate for assay without S9 mix and 4, 6, 8, 10 µL/plate for assay with S9 mix).
Compounds were assessed for mutagenicity by a modified version of the liquid incubation assay of the classical Ames test at five concentrations (25–125 nM). Salmonella tester strains (TA97a: Acridine ICR191, TA98: 2,4,7 trinitrofluorenone, TA100: Sodium Azide and TA102: Mitomycine C) as positive control w/o S9 mix and benzo[alpha]pyrene as positive control w/S9 mix) were grown overnight in a nutrient broth n_2 (Oxoid, Dardilly, France). After this period, products dissolved in DMSO (Sigma) were added to 0.1 mL of culture and incubated for 1 h at 37 °C with shaking. Each sample was assayed in duplicate. After incubation, 2 mL of molten top agar were mixed gently with the pre-incubated solution and poured onto Vogel–Bonner minimal agar plates. After 48 h at 37 °C, the number of spontaneous and drug-induced revertants per plate was determined for each dose with a laser bacterial colony counter (laser bacterial colony counter 500A, Interscience). A product was considered mutagenic when it induced a two-fold increase in the number of revertants, compared with the spontaneous frequency (negative control). […]
For orientation: In the Ames test, an excess of revertant colonies over the control signals mutagenicity.

Data set [2] deals with Plasmodium falciparum blood stage parasites. In words: Growth assay over three life cycles (delayed death). In kind it is cell-based. The settings on record: 0.2 µM; 48, 96, 144 h. Here is the method: To determine the impact of (3i) on apicoplast biogenesis, parasites were treated for 48 h with 0.2 µM of (3i) or 0.2 µM of (2i) (a control of (3i) for which the active CCl3 was replaced by a methyl CH3 group) and compared to untreated parasites by immunofluorescence assay. […] In order to determine if the apicoplast is the main target of (3i), we performed a growth assay over three life cycles to assess a potential delayed death effect, one of the major signature for compounds affecting apicoplast. […] The second interpretation could be that, unlike chloramphenicol or doxycycline, which cause a delayed death phenotype on Plasmodium, (3i) could act like fosmidomycin or actinonin and cause a rapid death phenotype.
To observe a potential effect of delayed death of the molecule on the parasite, Plasmodium was maintained on three life cycles (48 h). […] Fluorescence from each well was measured with TECAN infinite M200 plate reader (excitation: 485 nm, emission: 538 nm and integration time: 1000 μs). […] A graph was obtained by performing the ration of the treated culture fluorescence intensity on the untreated culture fluorescence intensity (n = 3).

`O=[N+]([O-])c1ccc(Oc2nc3ccccc3nc2C(Cl)(Cl)Cl)cc1` [3i, 2-(4-Nitrophenoxy)-3-trichloromethylquinoxaline]: the “In vitro comet assay: DNA strand breaks or alkali labile sites (genotoxicity)” value in the data set on HepG2 cell line (HepG2, 3.2 and 16 µM, short (2 h) or long (72 h) exposition) is recorded as “not genotoxic; also recorded: did not induce DNA strand breaks or alkali labile sites”. Further, the “In vitro comet assay result” value with HepG2 cell line (HepG2, 2 h, 3.2 µM) was “negative”; with HepG2 cell line (HepG2, 2 h, 16 µM) it was “negative”; with HepG2 cell line (HepG2, 72 h, 3.2 µM) it was “negative”; with HepG2 cell line (HepG2, 72 h, 16 µM), “negative”. Besides, the “Ames test result (mutagenicity)” value in data set [1] is given as “not genotoxic; also recorded: not mutagenic in vitro; also recorded: negative”. Besides, the “Parasite growth over three life cycles (ratio treated/untreated)” value in data set [2] was “drastic reduction in the parasite growth within the first life cycle”.
